From patent publication US20230203058A1, “MACROCYCLIC DIAMINE DERIVATIVES AS ENT INHIBITORS FOR THE TREATMENT OF CANCERS, AND COMBINATION THEREOF WITH ADENOSINE RECEPTOR ANTAGONISTS” (ITEOS BELGIUM SA, priority 2020, published 2023)
Read-outs that look alike come from different tables or passages of the source.

How the values were obtained:
human ENT1 = target: T1, human ENT1 (Homo sapiens, UniProt Q99808); experiment: ENT1 binding assay (competition with Sahenta-DY647 on JAR cells); parameters: JAR cells expressing ENT1 were bought from ATCC® (HTB-144TM); host or cells: JAR cells (human choriocarcinoma line; whole cells); conditions: competition with Sahenta-DY647 100 nM, 4° C.
T1 sequence (Q99808 1-456): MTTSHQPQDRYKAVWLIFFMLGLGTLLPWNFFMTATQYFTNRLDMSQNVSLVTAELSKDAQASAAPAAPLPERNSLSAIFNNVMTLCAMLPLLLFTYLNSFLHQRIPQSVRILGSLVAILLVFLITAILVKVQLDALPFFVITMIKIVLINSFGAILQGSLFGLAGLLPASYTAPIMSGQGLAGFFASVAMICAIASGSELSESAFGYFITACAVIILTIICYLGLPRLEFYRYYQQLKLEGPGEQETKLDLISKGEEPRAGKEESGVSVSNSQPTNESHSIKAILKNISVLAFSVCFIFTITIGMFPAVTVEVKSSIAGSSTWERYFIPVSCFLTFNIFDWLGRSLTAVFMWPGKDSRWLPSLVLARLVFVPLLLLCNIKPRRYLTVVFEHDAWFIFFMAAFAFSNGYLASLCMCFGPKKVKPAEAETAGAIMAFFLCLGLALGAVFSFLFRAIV
Outline: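 Competition binding on intact JAR cells (50000 per well) in HBSS with 10 mM Hepes and 0.1% BSA. Cells pre-incubated with compound 30 min at 4 °C, then Sahenta-DY647 added at its IC90 (100 nM) for another 30 min at 4 °C; after washing, fluorescence read at Ex 630/Em 670 nm.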

[1] = test system: stimulated primary human T cells; experiment: T cell proliferation assay (rescue of proliferation in presence of ATP, CFSE dilution); type: cell-based; conditions: 100 uM ATP
Protocol: The aim of this study was to determine the potency of equilibrative nucleoside transporter 1 (ENT1) inhibitors to rescue proliferation by stimulated primary human T cells incubated in the presence of 100 uM Adenosine triphosphate (ATP), in baseline conditions (condition A) or in the presence of various proteins known to bind small molecules (condition B). Condition A: X-VIVO15 Condition B: X-VIVO15, 2% Human Serum Albumine (HSA) and 0,1% α-1-Acid Glycoprotein (AAG)
Cryopreserved purified human CD3+ T cells were thawed and washed twice with RPMI1640 medium, UltraGlutamine containing 10% hiFBS.
Cells were suspended in PBS containing 10% hiFBS. Cells were stained with CFSE by adding 2 µM solution in PBS, to get a final 1 µM CFSE solution. Cells were incubated while rotating for 5 minutes. Reaction was stopped by adding PBS with 10% FBS and cells were centrifuged for 5 minutes at 1500 rpm.
Cells were resuspended at 1.6 ×10^6 cells/mL, either in X-VIVO15 medium or in 4% Human Serum Albumin and 0,2% α-1-Acid Glycoprotein. 50 µL of cell suspension (8×10^4 T cells) was added to wells of sterile round-bottom 96-well plates. Cells were activated by adding 50 µL of anti-CD3 anti-CD28 coated microbeads, suspended either in XVIVO-15 medium or in 4% HSA and 0,2% α-1-Acid Glycoprotein, at a ratio of one microbead per two cells. Serial dilutions of the ENT1 inhibitors were prepared in X-VIVO15 from 10 mM stock solutions in DMSO, and 50 µL was added to the wells. ATP powder was diluted in X-VIVO15, and 50 µL of this compound was added to the wells to reach a final assay concentration of 100 µM. Final volume of 200 µL. The experiments were also performed in 384 well plates - all volumes reduced by a factor of 4 (12,5 µL) with a final volume of 50 µL. Experiments were performed in duplicate. The cells were placed in a 37° C. humidified tissue culture incubator with 5% CO2 for 72 hours for 96 well plates, 96 hours for 384 well plates. After 72 or 96 hours, proliferation was measured determined by CFSE dilution via flow cytometry.

[2] = Condition A: X-VIVO15, read-out: T Cell proliferation (Condition A) IC50
[3] = Condition B: X-VIVO15, 2% HSA and 0,1% AAG, read-out: (2) T Cell proliferation (Condition B) IC50

Row | SMILES | IC50 (human ENT1) [nM] | IC50 [1, 2] [nM] | IC50 [1, 3] [nM]
1 | COc1cc(C(=O)O[C@@H]2CCCOc3cccc(c3)C(=O)OCCCN3CCCN(CC2)CC3)cc(OC)c1OC (stereo in doubt) [Compound 18, (12R)-6-oxo-5,8-dioxa-1(1,4)-diazepana-7(1,3)-benzenacyclotetradecaphane-12-yl 3,4,5-trimethoxybenzoate] | 1 to 20 | 1 to 20 | > 500
2 | COc1cc(C(=O)O[C@@H]2CCCOc3cc(cc(OC)c3OC)C(=O)OCCCN3CCCN(CC2)CC3)cc(OC)c1OC [Compound 1, (12R)-74,75-dimethoxy-6-oxo-5,8-dioxa-1(1,4)-diazepana-7(1,3)-benzenacyclotetradecaphane-12-yl 3,4,5-trimethoxybenzoate] | 1 to 20 | < 1 | < 1
3 | COc1cc(C(=O)O[C@@H]2CCCOc3cc(cc(OC)c3OC)C(=O)OCCCN3CCN(CC2)CC(F)(F)C3)cc(OC)c1OC [Compound 6, (12R)-16,16-difluoro-74,75-dimethoxy-6-oxo-5,8-dioxa-1(1,4)-diazepana-7(1,3)-benzenacyclotetradecaphane-12-yl 3,4,5-trimethoxybenzoate] | 1 to 20 | < 1 | 20 to 500
4 | COc1cc2cc(c1OC)CCC[C@@H](OC(=O)c1cc(OC)c(OC)c(OC)c1)CCN1CCCN(CCCNC2=O)CC1 [Compound 14, (11R)-74,75-dimethoxy-6-oxo-5-aza-1(1,4)-diazepana-7(1,3)-benzenacyclotridecaphane-11-yl 3,4,5-trimethoxybenzoate] | 1 to 20 | 1 to 20 | > 500
5 | COc1cc2cc(c1OC)OCCC[C@@H](OC(=O)c1ccccc1)CCN1CCCN(CCCOC2=O)CC1 [Compound 32, (12R)-74,75-dimethoxy-6-oxo-5,8-dioxa-1(1,4)-diazepana-7(1,3)-benzenacyclotetradecaphane-12-yl benzoate] |  | < 1 | 20 to 500
6 | COc1cc2cc(c1OC)OCCC[C@H](OC(=O)c1ccccc1)CCN1CCCN(CCCOC2=O)CC1 [Compound 33, (12S)-74,75-dimethoxy-6-oxo-5,8-dioxa-1(1,4)-diazepana-7(1,3)-benzenacyclotetradecaphane-12-yl benzoate] | > 500 | > 500 | > 500
7 | COc1cc2cc(c1OC)OCCCC(O/N=C\c1ccccc1)CCN1CCCN(CCCOC2=O)CC1 (stereo not shown) [Compound 37, (Z)-benzaldehyde O-(74,75-dimethoxy-6-oxo-5,8-dioxa-1(1,4)-diazepana-7(1,3)-benzenacyclotetradecaphane-12-yl) oxime] | 20 to 500 | 1 to 20 | > 500
8 | COc1cc2cc(c1OC)OCCC[C@@H](O)CCN1CCCN(CCCOC2=O)CC1 [Compound 39, (12R)-12-hydroxy-74,75-dimethoxy-5,8-dioxa-1(1,4)-diazepana-7(1,3)-benzenacyclotetradecaphan-6-one] | > 500 | 20 to 500 | > 500
9 | COc1cc2cc(c1OC)OCCCC(OC(=O)c1ccc(OC(C)C)cc1)CCN1CCCN(CCCOC2=O)CC1 (stereo not shown) [Compound 43, 74,75-dimethoxy-6-oxo-5,8-dioxa-1(1,4)-diazepana-7(1,3)-benzenacyclotetradecaphane-12-yl 4-isopropoxybenzoate] | 20 to 500 | < 1 | 1 to 20
10 | COc1cc2cc(c1OC)OCCCC(OC(=O)c1cccc(Oc3ccccc3)c1)CCN1CCCN(CCCOC2=O)CC1 (stereo not shown) [Compound 46, 74,75-dimethoxy-6-oxo-5,8-dioxa-1(1,4)-diazepana-7(1,3)-benzenacyclotetradecaphane-12-yl 3-phenoxybenzoate] | 20 to 500 | 1 to 20 | 20 to 500
11 | COc1cc2cc(c1OC)OCCCC(n1cc(-c3ccccc3)nn1)CCN1CCCN(CCCOC2=O)CC1 (stereo not shown) [Compound 108, 74,75-dimethoxy-12-(4-phenyl-1 H-1,2,3-triazol-1-yl)-5,8-dioxa-1(1,4)-diazepana-7(1,3)-benzenacyclotetradecaphan-6-one] | > 500 |  | 
12 | COc1cc2cc(c1OC)OCCCC(OC(=O)CCN1C(=O)CCC1=O)CCN1CCCN(CCCOC2=O)CC1 (stereo not shown) [Compound 110, 74,75-dimethoxy-6-oxo-5,8-dioxa-1(1,4)-diazepana-7(1,3)-benzenacyclotetradecaphane-12-yl 3-(2,5-dioxopyrrolidin-1-yl)propanoate] | 20 to 500 |  | 

Now from value to molecule, other results behind:

Row | IC50 (human ENT1) [nM] | SMILES | IC50 [1, 2] [nM] | IC50 [1, 3] [nM]
13 | 1 to 20 | COc1cc2cc(c1OC)OCCCC(OC(=O)C1CCCC(OC)C1)CCN1CCCN(CCCOC2=O)CC1 (stereo not shown) [Compound 111, 74,75-dimethoxy-6-oxo-5,8-dioxa-1(1,4)-diazepana-7(1,3)-benzenacyclotetradecaphane-12-yl 3-methoxycyclohexane-1-carboxylate] |  | 
14 | > 500 | COc1cc2cc(c1OC)OCCCC(O/N=C/c1ccccc1)CCN1CCCN(CCCNC2=O)CC1 (stereo not shown) [Compound 114, (E)-benzaldehyde O-(74,75-dimethoxy-6-oxo-8-oxa-5-aza-1(1,4)-diazepana-7(1,3)-benzenacyclotetradecaphane-12-yl) oxime] |  | 
15 | > 500 | COc1cc2cc(c1OC)OCCC[C@@H](O/N=C/c1ccccc1)CCN1CCCN(CCCNC2=O)CC1 [Compound 115, (E)-benzaldehyde O-((12R)-74,75-dimethoxy-6-oxo-8-oxa-5-aza-1(1,4)-diazepana-7(1,3)-benzenacyclotetradecaphane-12-yl) oxime] |  | 
16 | > 500 | COc1cc2cc(c1OC)OCCCC(O)CCN1CCCN(CCCNC2=O)CC1 (stereo not shown) [Compound 117, 12-hydroxy-74,75-dimethoxy-8-oxa-5-aza-1(1,4) -diazepana-7(1,3)-benzenacyclotetradecaphan-6-one] |  | 
17 | 1 to 20 | COc1cc(C(=O)O[C@H]2CCCOc3cc(cc(OC)c3OC)C(=O)OCCCN3CCN(CC2)CC(F)(F)C3)cc(OC)c1OC [Compound 119, (12S)-16,16-difluoro-74,75-dimethoxy-6-oxo-5,8-dioxa-1(1,4)-diazepana-7(1,3)-benzenacyclotetradecaphane-12-yl 3,4,5-trimethoxybenzoate] |  | 
18 | 1 to 20 | COc1cc(C(=O)OC2CCCOc3cc(cc(C(N)=O)c3Cl)C(=O)OCCCN3CCCN(CC2)CC3)cc(OC)c1OC (stereo not shown) [Compound 120, 75-carbamoyl-74-chloro-6-oxo-5,8-dioxa-1(1,4)-diazepana-7(1,3)-benzenacyclotetradecaphane-12-yl 3,4,5-trimethoxybenzoate] |  | 
19 | 20 to 500 | COc1cc(C(=O)O[C@H]2CCCOc3cc(cc(Cl)c3C(N)=O)C(=O)NCCCN3CCCN(CC2)CC3)cc(OC)c1OC [Compound 121, (12S)-74-carbamoyl-75-chloro-6-oxo-8-oxa-5-aza-1(1,4)-diazepana-7(1,3)-benzenacyclotetradecaphane-12-yl 3,4,5-trimethoxybenzoate] |  | 
20 | 1 to 20 | COc1cc(C(=O)OC2CCCOc3cc(cc(Cl)c3Br)C(=O)NCCCN3CCCN(CC2)CC3)cc(OC)c1OC (stereo not shown) [Compound 122, 74-bromo-75-chloro-6-oxo-8-oxa-5-aza-1(1,4)-diazepana-7(1,3)-benzenacyclotetradecaphane-12-yl 3,4,5-trimethoxybenzoate] |  | 
21 | 1 to 20 | COc1cc(C(=O)OC2CCCOc3cc(cc(Cl)c3C#N)C(=O)NCCCN3CCCN(CC2)CC3)cc(OC)c1OC (stereo not shown) [Compound 123, 75-chloro-74-cyano-6-oxo-8-oxa-5-aza-1(1,4)-diazepana-7(1,3)-benzenacyclotetradecaphane-12-yl 3,4,5-trimethoxybenzoate] |  | 
